Measurements published in article PMC11542830, “3-nitropyridine analogues as novel microtubule-targeting agents” (PLOS ONE, 2024).
Where two headings read alike, the source gives them in different places.

Columns and labels:
[1] = Pharmacokinetics and tissue distribution in mice; format: in vivo; details: CD1 mice, IV bolus 20 mg/kg
Description: Female CD1 mice were purchased from Harlan (Harlan Netherlands BV) and 7–8 weeks old mice were injected intravenously (IV) with 20 mg/kg 4AZA2891 formulated at 2 mg/ml as described above. […] The plasma, obtained after centrifugation of the heparinized blood for 2 min at 13,000 g, and the harvested tissues, after homogenization with Ultra-Turrax, were stored at-80°C until analysis by LC-MS/MS.
(§1) Every plasma and tissue sample was spiked with internal standard followed by the addition of 4 volumes of methanol. The samples were kept for 30 min on ice prior to centrifugation 10 min at 12,000 RPM in order to remove precipitated proteins. The supernatant was analyzed for the presence of 4AZA2891 using LC/MS/MS (Finnigan LCQ advantage Max (ion trap) mass spectrometer with Surveyor HPLC System (Thermo Finnigan)).
(§2) As standard for the bioanalysis, 4AZA2891 was diluted stepwise. Each dilution was added to blank control plasma or to blank control tissue homogenate additionally spiked with internal standard, giving rise to standard curves from 5 to 5,000 ng/ml. The lower limit of quantification was 5 to 10 ng/ml depending on the tissues.
(§3) Non-compartmental pharmacokinetic analysis was performed on the plasma concentration-time data. PK Solutions 2.0 software (Summit Research Services) was used to calculate the PK parameters.

MALME-3M = assay: NCI60 5-dose screen, MALME-3M; format: cell-based; details: Homo sapiens, melanoma, Fig 1D, read-out: Log10 GI50 (MALME-3M) (converted)
Description: (§4) The screening methodology used in the NCI60 Cell 5-Doses screen is described in detail at https://dtp.cancer.gov/discovery_development/nci-60/methodology.htm. Briefly, cells are seeded in 96 well plates at an appropriate density and incubated for 1 day. After 1 day, some of the plates are processed to determine a time zero density. To the remaining plates, compounds are added over a 5-log M concentration range (1 log dilutions from 10^-4M to 10^-8M). Plates are incubated for two additional days, then fixed and stained with sulforhodamine B. Growth inhibition is calculated relative to cells without drug treatment and the time zero control. The GI50 is the concentration of a compound that causes 50% growth inhibition, relative to the no drug control.

Myelotoxicity in mice = format: in vivo; details: Balb/c mice
Description: Female Balb/c mice from Janvier Labs, 8–10 weeks old, were injected IV daily for 6 days with 4AZA2891 at 15 mg/kg or with the vehicle (4 mice per treatment group). The compound was formulated at 0.75 mg/ml in glucose 5% with 2 equivalents H3PO4 as described above. Mice were daily weighted and assessed clinically. On day 7, mice were exsanguinated by retro-orbital bleeding under anesthesia with avertin (given intraperitoneally); blood was collected in EDTA tubes and was subjected to an automated blood count (Sysmex XE 2100 Hematology Analyser, Sysmex Europe GmbH). Femurs were fixed in formaldehyde, decalcified, and paraffin embedded. Sections (4.5 μm) were stained with hematoxylin/eosin (H&E) for histopathological analysis at Novaxia (France).

HT-29 xenograft = HT-29 xenograft tumor model; format: in vivo; details: for ratio of relative tumor volume of treated mice over control mice (T/C): end of the treatment period
Description: Seven-week-old NMRI nude male mice were obtained from Janvier Labs (France) and injected with 10^7 HT-29 cells intradermally on the flank. When tumors reached approximately 100 mm^3, mice were distributed into three groups of four to six mice to give the same average tumor size per group and randomly assigned a treatment condition. Mice were injected IV with 4AZA2891 at 15 mg/kg following a Q1D5x2W administration schedule or at 30 mg/kg following a Q2D3x2W administration schedule or with the vehicle (Q1D5x2W). 4AZA2891 was formulated before each injection at 3 mg/ml in 5% glucose with 2 equivalent H3PO4 and warmed at 80°C for 1 h to obtain a clear solution. Tumor volume was measured as (width^2 × length)/2 in mm^3 and weight gain/loss and survival were monitored. T/C ratio was calculated as the ratio of the relative tumor volume average. The health status and behaviour of the animals were assessed daily for well-being. At the end of the experiment (day 35 after treatment intiation)) or in the events of signs of distress, cachexia or excessive tumor growth, the mice were humanely sacrificed by CO2 inhalation followed by cervical dislocation.

Pharmacokinetics in rats = format: in vivo, Sprague-Dawley rats; details: rat
Description: The pharmacokinetic profile of 4AZA2891 was investigated in male Sprague-Dawley rats after intravenous and oral administration of a dose of 2 mg/kg and 20 mg/kg, respectively. The rats were purchased from Charles River Laboratories (Belgium) and 3 rats were included in each dosing route. 4AZA2891 was formulated either as a solution at 1 mg/ml in glucose 5% with 2 equivalents of H3PO4 for the IV dosing or as a solution at 4 mg/ml in water with 2 equivalents of H3PO4 for the oral dosing. Both formulations were heated for 1 hour at 80°C in order to obtain a clear solution. Serial venous blood samples, taken by eye puncture under isoflurane inhalation anesthesia, were collected in heparinized tubes. The plasma fraction was immediately separated by centrifugation 2 min at 13,000 g and stored at -80°C until analysis. Plasma concentrations were measured using liquid chromatography/mass spectrometry/mass spectrometry (LC/MS/MS).
as §1, §2, §3

tubulin = assay: Fluorescence-based tubulin polymerization assay; format: biochemical; details: purified tubulin, fluorescent reporter, vs DMSO control
Description: Tubulin polymerization in vitro was analyzed using the fluorescence-based tubulin polymerization assay (Cytoskeleton, Inc.), according to the manufacturer’s guidelines. Fluorescence was read on a SaFire II microplate reader (Tecan).

RXF 393 = assay: NCI60 5-dose screen, RXF 393; format: cell-based; details: Homo sapiens, renal cancer, Fig 1D, read-out: Log10 GI50 (RXF 393) (converted)
Description: as §4

[2] = 15 mg/kg IV once daily for 6 days, blood on day 7

## Cc1cc(C)cc(Nc2ccc([N+](=O)[O-])c(NCCN3CCOCC3)n2)c1 [Compound 4AZA2891, 6-(3,5-dimethylanilino)-2-(2-morpholinoethylamino)-3-nitropyridine]
[1]
  tissue distribution: distributes readily to all tissues analyzed including the brain
[1]; female, mouse, different tissues (homogenates), tissues, read-out: elimination half-lives in the different tissues
  half-life: 18 to 48 min
[1]; female, mouse, plasma, read-out: AUClast in plasma
  AUC(0-t): 1290 ng·h/mL
[1]; female, mouse, brain, read-out: ratio of brain AUC over plasma AUC
  Kp: 2.7
[1]; female, mouse, kidney, read-out: ratio of kidney AUC over plasma AUC
  Kp: 2.6
[1]; female, mouse, plasma, read-out: elimination half-life (converted)
  half-life: 42 min
[1]; female, mouse, plasma, read-out: systemic clearance (converted)
  clearance: 257 mL/min/kg
[1]; female, mouse, plasma, read-out: volume of distribution at steady state
  Vd: 5.7 L/kg
MALME-3M
  GI50: 15.8 µM
Myelotoxicity in mice; [2]
  Hb: 14.7 ± 2.2 g/dL
  Platelets: 234 ± 84 10^9/l
  RBC: 9.4 ± 1.6 10^12/l
  WBC: 5.2 ± 2.6 10^9/l
Myelotoxicity in mice; 15 mg/kg/d IV during 6 days
  histologic examination of the bone marrow: normal
  tolerability (body weight change, anemia, leukocytopenia, thrombocytopenia): well tolerated
HT-29 xenograft; 15 mg/kg IV Q1D5x2W
  ratio of relative tumor volume of treated mice over control mice (T/C): 42%
HT-29 xenograft; 30 mg/kg IV Q2D3x2W
  ratio of relative tumor volume of treated mice over control mice (T/C): 34%
HT-29 xenograft; both dosing regimen (15 mg/kg Q1D5x2W, 30 mg/kg Q2D3x2W), IV
  tumor growth inhibition: significant tumor growth inhibition
HT-29 xenograft; both dosing regimens, IV, tumor bearing mice
  tolerability (body weight evolution): well tolerated
Pharmacokinetics in rats; male, Sprague-Dawley, plasma, IV 2 mg/kg, read-out: AUClast in plasma
  AUC(0-t): 253 ng·h/mL
Pharmacokinetics in rats; male, Sprague-Dawley, plasma, IV 2 mg/kg, read-out: elimination half-life (converted)
  half-life: 48 min
Pharmacokinetics in rats; male, Sprague-Dawley, plasma, IV 2 mg/kg, read-out: systemic clearance (converted)
  clearance: 132 mL/min/kg
Pharmacokinetics in rats; male, Sprague-Dawley, plasma, IV 2 mg/kg, read-out: volume of distribution at steady state
  Vd: 7.4 L/kg
Pharmacokinetics in rats; IV 2 mg/kg, lower limit of quantification 10 ng/ml
  time detected in the plasma: up to 3 hours
Pharmacokinetics in rats; oral 20 mg/kg
  oral bioavailability: not orally bioavailable
Pharmacokinetics in rats; oral 20 mg/kg, all time points
  plasma levels after oral dose: below the limit of quantification
tubulin
  effect on tubulin polymerization in vitro: dose-dependently inhibits tubulin polymerization
RXF 393
  GI50: 0.0389 µM
